From paper PMC4893642 (Theranostics, 2016)
Values joined by “and” are separate entries in the source; they are usually repeats but may differ in a detail not shown here. Equal entries are not always repeated.

Legend:
[1] = target: CB2 receptors (Homo sapiens, UniProt P34972); test: CB2 agonist/antagonist test; type: cell-based; conditions: at concentrations up to 30 µM
[2] = target: CB1 receptors (Homo sapiens, UniProt P21554); test: CB1 agonist/antagonist test; type: cell-based; conditions: at concentrations up to 30 µM
CB1 receptors, sequence (P21554 whole entry): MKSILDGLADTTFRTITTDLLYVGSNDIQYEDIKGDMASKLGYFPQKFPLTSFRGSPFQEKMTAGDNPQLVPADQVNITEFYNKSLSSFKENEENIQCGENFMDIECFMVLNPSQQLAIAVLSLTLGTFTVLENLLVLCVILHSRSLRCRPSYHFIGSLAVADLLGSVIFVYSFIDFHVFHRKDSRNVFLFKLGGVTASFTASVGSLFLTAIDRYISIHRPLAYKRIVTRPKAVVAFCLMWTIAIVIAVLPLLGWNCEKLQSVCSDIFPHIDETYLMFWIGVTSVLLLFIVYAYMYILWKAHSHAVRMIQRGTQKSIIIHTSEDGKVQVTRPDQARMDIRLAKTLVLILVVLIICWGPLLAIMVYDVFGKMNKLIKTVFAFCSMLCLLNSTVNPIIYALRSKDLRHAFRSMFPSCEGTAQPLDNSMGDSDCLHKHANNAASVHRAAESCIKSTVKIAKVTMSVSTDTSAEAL

[3] = target: T1, human recombinant MAGL (Homo sapiens, UniProt Q99685); test: In vitro MAGL inhibition enzyme assay; type: biochemical; conditions: 4-nitrophenylacetate substrate
T1 sequence (Q99685 1-303): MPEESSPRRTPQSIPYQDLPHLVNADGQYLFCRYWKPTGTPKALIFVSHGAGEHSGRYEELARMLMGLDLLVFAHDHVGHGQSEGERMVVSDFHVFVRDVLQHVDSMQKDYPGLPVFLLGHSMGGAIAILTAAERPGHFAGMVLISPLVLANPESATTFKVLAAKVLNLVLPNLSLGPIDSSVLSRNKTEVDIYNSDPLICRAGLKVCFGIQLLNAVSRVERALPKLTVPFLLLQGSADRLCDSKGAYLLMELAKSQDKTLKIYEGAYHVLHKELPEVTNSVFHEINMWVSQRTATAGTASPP

[4] = target: T2, MAGL (Rattus norvegicus, UniProt Q8R431); conditions: 30 min i.v. before injection
T2 sequence (Q8R431 1-303): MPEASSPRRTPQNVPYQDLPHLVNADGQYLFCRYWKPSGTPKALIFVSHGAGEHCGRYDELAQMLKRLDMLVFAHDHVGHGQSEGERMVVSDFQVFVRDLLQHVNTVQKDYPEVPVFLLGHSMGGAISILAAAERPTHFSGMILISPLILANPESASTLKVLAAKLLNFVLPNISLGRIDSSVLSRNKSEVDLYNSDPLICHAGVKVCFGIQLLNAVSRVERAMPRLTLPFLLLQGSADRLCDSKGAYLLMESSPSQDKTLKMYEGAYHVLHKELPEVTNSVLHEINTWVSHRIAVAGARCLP

[5] = target: T3, FAAH (Homo sapiens, UniProt O00519); test: In vitro FAAH inhibition enzyme assay; type: biochemical; conditions: read-out: inhibition of FAAH enzyme
T3 sequence (O00519 1-579): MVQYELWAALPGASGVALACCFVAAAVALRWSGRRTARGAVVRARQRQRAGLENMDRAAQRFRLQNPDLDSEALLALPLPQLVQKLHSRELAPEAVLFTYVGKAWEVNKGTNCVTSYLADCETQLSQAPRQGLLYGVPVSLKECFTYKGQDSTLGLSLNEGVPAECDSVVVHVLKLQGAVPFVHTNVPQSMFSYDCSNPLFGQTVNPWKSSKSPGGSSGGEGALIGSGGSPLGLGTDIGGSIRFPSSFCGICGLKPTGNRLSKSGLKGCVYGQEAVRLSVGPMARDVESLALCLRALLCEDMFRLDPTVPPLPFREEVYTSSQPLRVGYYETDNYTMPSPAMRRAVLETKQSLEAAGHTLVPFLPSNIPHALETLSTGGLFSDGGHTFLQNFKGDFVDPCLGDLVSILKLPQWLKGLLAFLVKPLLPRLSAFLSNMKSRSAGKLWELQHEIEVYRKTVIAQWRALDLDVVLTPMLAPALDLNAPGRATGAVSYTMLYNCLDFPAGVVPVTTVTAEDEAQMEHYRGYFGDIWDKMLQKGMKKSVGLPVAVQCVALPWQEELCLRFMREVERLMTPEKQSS

[6] = Ex vivo whole body biodistribution in mice

CB2 receptors, sequence (P34972 whole entry): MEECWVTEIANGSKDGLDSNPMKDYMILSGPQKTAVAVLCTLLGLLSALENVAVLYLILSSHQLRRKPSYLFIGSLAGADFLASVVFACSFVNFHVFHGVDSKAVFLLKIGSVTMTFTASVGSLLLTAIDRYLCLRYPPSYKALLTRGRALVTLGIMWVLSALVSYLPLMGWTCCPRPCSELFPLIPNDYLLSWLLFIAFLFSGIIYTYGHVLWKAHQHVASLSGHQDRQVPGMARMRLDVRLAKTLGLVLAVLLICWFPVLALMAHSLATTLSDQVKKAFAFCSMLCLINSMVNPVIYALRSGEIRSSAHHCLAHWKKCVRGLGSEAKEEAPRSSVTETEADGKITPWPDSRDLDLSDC

IC50 [3]	reduction of [11C]5f uptake in cerebellum by pretreatment ([4]; rat, blocker 1 mg/kg) [%]	reduction of [11C]5f uptake in cerebral cortex by pretreatment ([4]; rat, blocker 1 mg/kg) [%]	reduction of [11C]5f whole brain uptake by pretreatment ([4]; rat, blocker 1 mg/kg) [%]	inhibition at 0.5 µM [5] [%]	uptake in the liver, kidneys and small intestine [6]	SMILES	CB2 receptor agonism or antagonism [1]	CB1 receptor agonism or antagonism [2]	effect on [11C]SAR127303 uptake and distribution in rat brain ([4]; blocker 3 mg/kg)
0.0393 µM and 0.0359 µM	53	42	48	75	High uptake	O=C(N1CCC(CNS(=O)(=O)c2ccc(Cl)cc2)CC1)n1cncn1 [Compound 5f, N-((1-(1H-1,2,4-triazole-1-carbonyl)piperidin-4-yl)methyl)-4-chlorobenzenesulfonamide]	No significant CB1 and CB2 receptors agonism or antagonism	No significant CB1 and CB2 receptors agonism or antagonism	
						NC(=O)c1cccc(-c2cccc(OC(=O)NC3CCCCC3)c2)c1 [URB597, reference compound]			no effect on the uptake and distribution in rat brain
					High uptake	O=C(OC(C(F)(F)F)C(F)(F)F)N1CCC(CNS(=O)(=O)c2ccc(Cl)cc2)CC1 [Compound 5a, 1,1,1,3,3,3-hexafluoropropan-2-yl 4-(((4-chlorophenyl)sulfonamido)methyl)piperidine-1-carboxylate]	No significant CB1 and CB2 receptors agonism or antagonism	No significant CB1 and CB2 receptors agonism or antagonism	
